From paper PMC7181245, “Antiestrogenic Activity and Possible Mode of Action of Certain New Nonsteroidal Coumarin-4-acetamides” (Molecules, 2020)
Read-outs that look alike come from different tables or passages of the source.

Assays:
[1] = system: MCF-7 cell line (ER+ breast cancer cell line); assay: MTT cytotoxicity assay, MCF-7 cell line; conditions: for IC50: Homo sapiens, MCF7, read-out: IC50 (μM) ± S.E.M MCF-7 (cytotoxicity)
Method: (§1) The cytotoxic activity of the synthesized compounds IIIa–h was evaluated in vitro against the human breast adenocarcinoma MCF7 (ER^+ breast cancer cell line) and the MDA-MB-231 (triple-negative breast cancer cell line, TNBC), using camptothecin as a pyranone-bearing reference standard.
(§2) The cytotoxicity of compounds Ia,b, IIa,b, and IIIa–h against the MCF-7 cell line (ER+ breast cancer cell line) and MDA-MB-231 (triple-negative breast cancer cell line, TNBC) was determined using camptothecin as a pyranone-bearing reference standard.

[2] = system: MDA-MB-231 (triple-negative breast cancer cell line, TNBC); assay: MTT cytotoxicity assay, MDA-MB-231 cell line
Method: as §1, §2

MCF-7 = system: MCF-7; design: method as in PMID 9391160, PMID 15177442; conditions: cited from earlier work
[3] = system: estrogen-dependent human breast cancer MCF-7 cell proliferation induced by 17-β-estradiol; assay: In vitro antiestrogenic activity: MCF-7 cell proliferation assay (MTT) in the presence of 17-β-estradiol; assay type: cell-based; conditions: inhibition of MCF-7 cell proliferation induced by 17-β-estradiol, read-out: IC50 (μM) ± S.E.M. MCF-7 (in vitro antiestrogenic activity)
Method: The in vitro antiestrogenic activity of the selected target compounds IIIa,b, IIId, and IIIf,g was studied through an estrogen-dependent human breast cancer MCF-7 cell proliferation assay in the presence of 17-β-estradiol. The ability of the tested compounds to inhibit cell proliferation induced by 17-β-estradiol was determined (Table 3 and Figure 4).
The antiestrogenic activity of the test compounds was examined by performing a 3-(4,5-dimethylthiazol-2-yl)-2,5-diphenyl tetrazolium bromide (MTT) assay of the MCF-7 cell line. In this experiment, MCF-7 cells were treated with 17β-estradiol (+ve cell proliferation compound). The effect of various concentrations of the tested compounds on cell proliferation in the presence of 17β-estradiol was measured.

aromatase = target: T1, aromatase (Homo sapiens, UniProt P11511); assay: In vitro aromatase inhibition (sandwich enzyme immunoassay); conditions: for IC50: IC50 (μM) ± S.E.M. (aromatase inhibition activity)
T1 sequence (P11511 1-503): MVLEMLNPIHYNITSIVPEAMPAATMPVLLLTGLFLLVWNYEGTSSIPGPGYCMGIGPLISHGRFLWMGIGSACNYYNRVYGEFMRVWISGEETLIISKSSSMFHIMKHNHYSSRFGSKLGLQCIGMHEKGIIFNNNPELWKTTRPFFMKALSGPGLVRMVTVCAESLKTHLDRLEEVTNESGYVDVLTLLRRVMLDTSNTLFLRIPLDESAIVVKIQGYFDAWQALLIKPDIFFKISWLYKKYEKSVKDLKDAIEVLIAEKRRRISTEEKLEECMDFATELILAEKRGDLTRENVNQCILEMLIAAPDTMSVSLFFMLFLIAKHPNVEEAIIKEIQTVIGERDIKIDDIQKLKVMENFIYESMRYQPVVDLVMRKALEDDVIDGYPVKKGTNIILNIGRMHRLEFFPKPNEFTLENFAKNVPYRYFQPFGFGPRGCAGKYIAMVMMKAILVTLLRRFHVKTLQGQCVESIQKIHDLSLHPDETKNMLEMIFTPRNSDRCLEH
Description: Sandwich enzyme immunoassay was adopted for aromatase inhibition assessment [38].

[4] = Homo sapiens, MDA-MB-231, read-out: IC50 (μM) ± S.E.M MDA-MB-231 (cytotoxicity), MTT assay, MDA-MB-231 cells
[5] = ratio of IC50 values vs camptothecin

Structure (SMILES): COC(=O)Cc1cc(=O)oc2ccc(OC)cc12 [Ia, Methyl (6-methoxy-2-oxo-2H-chromen-4-yl)acetate]
- melting point: 153 to 154 °C
- IC50 [1]: 13.9 ± 1.15 µM
- IC50 [2, 4]: 47.5 ± 2.51 µM

Structure (SMILES): CC[C@@]1(O)C(=O)OCc2c1cc1n(c2=O)Cc2cc3ccccc3nc2-1 [Camptothecin, reference compound]
- IC50 [1]: 4.41 ± 0.28 µM
- IC50 [2, 4]: 19.2 ± 1.14 µM

Structure (SMILES): O=c1oc2cc(O)ccc2c(Cc2ccc(OCCN3CCCCC3)cc2)c1-c1ccccc1 [SP500263]
- agonist activity in the MCF-7 proliferation assay (MCF-7): undesirable agonist activity

Structure (SMILES): COc1ccc2c(CC(=O)O)cc(=O)oc2c1 [IIb, (7-methoxy-2-oxo-2H-chromen-4-yl)acetic acid]
- IC50 [1]: 8.08 ± 0.25 µM
- IC50 [2, 4]: 216 ± 13.2 µM

Structure (SMILES): CC(C)COC(=O)c1ccccc1C(=O)O [Monoisobutyl phthalate (MIBP), Monoisobutyl phthalate, reference compound]
- IC50 [3]: 46.4 ± 3.14 µM

Structure (SMILES): COc1ccc2oc(=O)cc(CC(=O)N3CCCCC3)c2c1 [IIIa, 6-Methoxy-4-(2-oxo-2-(piperidin-1-yl)ethyl)-2H-chromen-2-one]
- melting point: 167 to 168 °C
- IC50 [1]: 1.82 ± 0.03 µM
- IC50 (aromatase): 22.5 ± 3.4 µM
- IC50 [2, 4]: 38.2 ± 1.52 µM
- IC50 ([3]; Homo sapiens, MCF7): 62 ± 4.02 µM

Structure (SMILES): COc1ccc2c(CC(=O)Nc3ccc(OC)c(O)c3)cc(=O)oc2c1 [IIIh, N-(3-Hydroxy-4-methoxyphenyl)-2-(7-methoxy-2-oxo-2H-chromen-4-yl)acetamide]
- melting point: 188 to 189 °C
- IC50 [1]: 5100 ± 241 µM
- IC50 [2, 4]: 14.1 ± 0.61 µM

Structure (SMILES): COc1ccc2c(CC(=O)N3CCCCC3)cc(=O)oc2c1 [IIIb, 7-Methoxy-4-(2-oxo-2-(piperidin-1-yl)ethyl)-2H-chromen-2-one]
- melting point: 135 to 136 °C
- IC50 [1]: 0.32 ± 0.04 µM
- potency relative to the reference standard camptothecin, MCF-7 [1, 5]: about 14 fold
- IC50 (aromatase): 89.1 ± 6.2 µM
- IC50 [2, 4]: 12.9 ± 1.17 µM
- IC50 ([3]; Homo sapiens, MCF7): 29.5 ± 3.25 µM

Structure (SMILES): COc1ccc2c(CC(=O)Nc3ccccc3)cc(=O)oc2c1 [IIIf, 2-(7-Methoxy-2-oxo-2H-chromen-4-yl)-N-phenylacetamide]
- melting point: 217 to 218 °C
- IC50 [1]: 5.69 ± 0.08 µM
- IC50 (aromatase): 332 ± 18.2 µM
- IC50 [2, 4]: 6.9 µM
- IC50 ([2]; human): 6.94 ± 0.41 µM
- IC50 ([3]; Homo sapiens, MCF7): 99.6 ± 6.39 µM

Structure (SMILES): COc1ccc2c(CC(=O)Nc3ccc(Br)cc3)cc(=O)oc2c1 [IIIg, N-(4-Bromophenyl)-2-(7-methoxy-2-oxo-2H-chromen-4-yl)acetamide]
- melting point: 212 to 213 °C
- IC50 [1]: 0.72 ± 0.02 µM
- IC50 (aromatase): 27.1 ± 1.38 µM
- IC50 [2, 4]: 90.8 ± 3.84 µM
- IC50 ([3]; Homo sapiens, MCF7): 64.4 ± 4.12 µM

Structure (SMILES): COC(=O)Cc1cc(=O)oc2cc(OC)ccc12 [Ib, Methyl (7-methoxy-2-oxo-2H-chromen-4-yl)acetate]
- IC50 [1]: 1.44 ± 0.02 µM
- IC50 (aromatase): 14.5 ± 1.32 µM
- IC50 [2, 4]: 1 ± 0.04 µM
- potency relative to the reference standard camptothecin, MDA-MB-231 [2, 5]: about 19 times

Structure (SMILES): COc1ccc2oc(=O)cc(CC(=O)O)c2c1 [IIa, (6-Methoxy-2-oxo-2H-chromen-4-yl)acetic acid]
- melting point: 178 to 179 °C
- IC50 [1]: 1 ± 0.03 µM
- IC50 (aromatase): 32.2 ± 2.39 µM
- IC50 [2, 4]: 80.2 ± 4.23 µM

Structure (SMILES): COc1ccc2oc(=O)cc(CC(=O)Nc3ccc(OC)c(O)c3)c2c1 [IIIe, N-(3-Hydroxy-4-methoxyphenyl)-2-(6-methoxy-2-oxo-2H-chromen-4-yl)acetamide]
- melting point: 173 to 174 °C
- IC50 [1]: 15.5 ± 1.24 µM
- aromatase inhibition activity (in words) (aromatase): moderate inhibitory activity
- IC50 (aromatase): 17.4 µM
- IC50 [2, 4]: 2.1 µM
- IC50 ([2]; human): 2.14 ± 0.06 µM

Structure (SMILES): COc1ccc2oc(=O)cc(CC(=O)Nc3ccc(Br)cc3)c2c1 [IIId, N-(4-Bromophenyl)-2-(6-methoxy-2-oxo-2H-chromen-4-yl)acetamide]
- melting point: 202 to 203 °C
- IC50 [1]: 2.8 ± 0.04 µM
- IC50 (aromatase): 69.9 ± 3.91 µM
- IC50 [2, 4]: 22.8 ± 1.54 µM
- IC50 ([3]; Homo sapiens, MCF7): 214 ± 12.1 µM

Structure (SMILES): COc1ccc2oc(=O)cc(CC(=O)Nc3ccccc3)c2c1 [IIIc, 2-(6-Methoxy-2-oxo-2H-chromen-4-yl)-N-phenylacetamide]
- melting point: 219 to 220 °C
- IC50 [1]: 10.9 ± 0.99 µM
- IC50 (aromatase): 1100 ± 52.4 µM
- IC50 [2, 4]: 4.6 ± 0.32 µM
